Holding throughout (format): physicochemical
Series [1] is described as follows: Dissolution study of acetaminophen release from cellulose capsules in water (USP II basket, HPLC). The conditions noted are these: for release rate: acetaminophen 50 mg + lactose 150 mg, water 900 mL, 37 C, 100 r.p.m. The procedure:
Cellulose capsule shells of three different shell thicknesses (0.05, 0.06 and 0.07 mm) were prepared from the methylolcellulose solution (cellulose content 4.4%, w/w) according to Example 2. They were filled with a homogeneously mixed powder blend of acetaminophen (50 mg) and lactose (150 mg). The dissolution study was performed in water (900 mL) at 37±0.5° C. and 100±2 r.p.m. using a Hansen Research USP II basket apparatus (Hansen Research Corp., Chatsworth, Calif.). The amount of drug released was determined by high performance liquid chromatography (HPLC) using an absolute calibration method and a fully automated Shimadzu LC-6A high performance liquid chromatograph, equipped with a C18 analytical column (Supelco—Sigma Aldrich, Bellefonte, Pa.). The drug was eluted with a 1:3 methanol:water mixture at a flow rate of 0.5 mL/min and detected at a wavelength of 243 nm. The release of acetaminophen increased linearly with time (see FIG. 4A).
Cellulose capsule shells (shell thickness 0.07-0.10 mm) prepared according to Example 2 were filled with 50, 100 and 200 mg of acetaminophen. The release studies were carried out in purified water (900 mL) at 37±0.5° C. and 100±2 r.p.m. The amount of acetaminophen released over time was determined by HPLC using conditions described above.
Cellulose capsule shells (shell thickness 0.07-0.10 mm), prepared according to Example 2, were filled with a homogeneously mixed powder blend of acetaminophen (100 mg) and 15, 50, 100, 150, or 200 mg of polyethylene glycol (PEG) 8000 (corresponding to the percent weight ratio of 87:13, 67:33, 50:50, 40:60, or 33:67, respectively, for the total powder fill in the capsule). The release studies were performed in purified water (900 mL) at 37±0.5° C. and 100±2 r.p.m. using the Hansen Research USP II basket apparatus (Hansen Research Corp., Chatsworth, Calif.). The amount of acetaminophen released was determined by HPLC as described above. […] Above 60% w/w PEG 8000 in the formulation, there was no change in the release rate compared to the rate at 50% PEG in the mixture.
Cellulose capsule shells (shell thickness 0.07-0.1 mm) prepared according to Example 2 were filled with acetaminophen (100 mg) and 50, 100 and 200 mg potassium chloride (KCl) (corresponding to the weight ratio of 33:67, 50:50 or 67:33, respectively, for the total powder fill in the capsule). The amounts of acetaminophen released at different times were determined by HPLC, following the procedure described above.

Series [2] is described as follows: Dissolution study of cellulose:Eudragit S100 capsule shells in pH 3.0 and pH 7.4 buffers (USP II basket, HPLC). The note with it: Cellulose:Eudragit (90:10%, w/w) capsule shell ~0.08 mm, acetaminophen 50 mg + anhydrous lactose 150 mg. The procedure:
Cellulose:Eudragit (90:10%, w/w) capsule shells (shell thickness˜0.08 mm) prepared according to Example 2 were filled with a homogeneously mixed powder blend of acetaminophen (50 mg) and anhydrous lactose (150 mg) and subjected to dissolution study first in pH 3.0 phthalate buffer (900 mL) for 3 h at 37±0.5° C. and 100±2 r.p.m followed by in pH 7.4 phosphate buffer (900 mL) for 5 h at 37±0.5° C. and 100±2 r.p.m. using a Hansen Research USP II basket apparatus (Hansen Research Corp., Chatsworth, Calif.). The amount of drug released was determined by HPLC according to the method described above. […] The higher steady-state release rate observed for acetaminophen at pH 7.4 is attributed to the dissolution of Eudragit, causing the capsule shell to become more porous.
Cellulose, cellulose-Eudragit (90:10) and cellulose:Eudragit (90:10%, w/w) capsule shells (shell thickness˜0.08 mm) were prepared according to Example 2. The dissolution test was carried out in pH 7.4 phosphate buffer (900 mL) for 5 h at 37±0.5° C. and 100±2 r.p.m. using a Hansen Research USP II basket apparatus (Hansen Research Corp., Chatsworth, Calif.). The amount of drug released was determined by HPLC according to the method described above. FIG. 12 compares the release results from the three capsule systems. The steady-state release rates calculated were 1.8, 3.1 and 4.6 mg/h, respectively.

Series [3] in a line: Release of KCl from cellulose capsules in unstirred aqueous urea solutions (potassium ion selective electrode). The conditions noted are these: cellulose capsule (shell 0.07-0.10 mm), KCl 500 mg, unstirred 200 mL, 37 C. The method, then: Cellulose capsule shells (shell thickness 0.07-0.10 mm), prepared according to Example 2, were filled with KCl (500 mg) and subjected to the release study in the unstirred dissolution medium (200 mL) containing 0.0, 1.5, 3.0, 5.5, or 8.0 M urea at 37±0.5° C. using a Hansen Research USP II basket apparatus (Hansen Research Corp., Chatsworth, Calif.). The amount of KCl released was analyzed using a potassium ion selective electrode connected to a pH meter (Orion model 420, Fisher Scientific, Inc., Pittsburgh, Pa.).

Series [4] in a line: Release of diphenhydramine hydrochloride from cellulose capsules in water (USP II basket, HPLC). The note with it: cellulose capsule, water 900 mL. The procedure:
Cellulose capsule shells (shell thickness 0.07-1.0 mm), prepared according to Example 2, were filled with diphenhydramine hydrochloride and lactose (400 mg) mixed in different weight-by-weight ratios (50:50, 25:75, 12.5:87.5, 6.25:93.75 or 3.75:96.25 weight ratios of diphenhydramine hydrochloride and lactose, respectively). The release study was performed in water (900 mL) at 37±0.5° C. and 100±2 r.p.m. using a Hansen Research USP II basket apparatus (Hansen Research Corp., Chatsworth, Calif.). The amount of drug released was determined by HPLC using a fully automated Shimadzu LC-10A high performance liquid chromatograph, equipped with a C18 analytical column (Supelco). The drug was eluted with a 1:4 (v/v) mixture of methanol:water (containing 1% triethylamine and 2% glacial acetic acid) at a flow rate of 0.2 mL/min and detected at a wavelength of 256 nm. […] The steady state release rates mentioned above depended linearly with the calculated osmotic pressure developed inside the capsule shell.

Structures can show the parent of a compound that is named as a salt.

For `CC(=O)Nc1ccc(O)cc1` [acetaminophen], the steady-state release rate amounted to 3.05 mg/h in series [1] (cellulose capsule (shell 0.07-0.10 mm) filled with 50 mg acetaminophen, purified water); 3.43 mg/h in series [1] (cellulose capsule (shell 0.07-0.10 mm) filled with 100 mg acetaminophen, purified water); 3.15 mg/h in series [1] (cellulose capsule (shell 0.07-0.10 mm) filled with 200 mg acetaminophen, purified water); 7.38 mg/h in series [1] (cellulose capsule (shell 0.07-0.10 mm), 33:67 (% w/w) acetaminophen:PEG 8000 (100 mg + 200 mg), purified water); 9.94 mg/h in series [1] (cellulose capsule (shell 0.07-0.1 mm), 33:67 acetaminophen:KCl mixture); 7.17 mg/h in series [1] (cellulose capsule (shell 0.07-0.10 mm), 40:60 (% w/w) acetaminophen:PEG 8000 (100 mg + 150 mg), purified water). Moreover, the steady-state release rate was determined as 6.95 mg/h in series [1] (cellulose capsule (shell 0.07-0.10 mm), 50:50 (% w/w) acetaminophen:PEG 8000 (100 mg + 100 mg), purified water); 10.14 mg/h in series [1] (cellulose capsule (shell 0.07-0.1 mm), 50:50 acetaminophen:KCl mixture); 6.62 mg/h in series [1] (cellulose capsule (shell 0.07-0.10 mm), 67:33 (% w/w) acetaminophen:PEG 8000 (100 mg + 50 mg), purified water); 11.41 mg/h in series [1] (cellulose capsule (shell 0.07-0.1 mm), 67:33 acetaminophen:KCl mixture); 5.92 mg/h in series [1] (cellulose capsule (shell 0.07-0.10 mm), 87:13 (% w/w) acetaminophen:PEG 8000 (100 mg + 15 mg), purified water); 2.68 mg/h in series [2] (pH 3.0 phthalate buffer, 3 h). For the same compound, the steady-state release rate in series [2] (pH 7.4 phosphate buffer, 5 h) came to 4.76 mg/h. Further, the release rate was 5.25 mg/h in series [1] (cellulose capsule shell thickness 0.05 mm), 4.30 mg/h in series [1] (cellulose capsule shell thickness 0.06 mm) and 3.06 mg/h in series [1] (cellulose capsule shell thickness 0.07 mm).

As for `[Cl-].[K+]` [KCl, potassium chloride], the “steady state release rate” value in series [3] (0.0 M urea) is 142.8 mg/h; in series [3] (1.5 M urea) it was 115.8 mg/h; in series [3] (3.0 M urea) it was 100.2 mg/h; in series [3] (5.5 M urea) it was 73.8 mg/h; in series [3] (8.0 M urea), 46.2 mg/h.

For `CN(C)CCOC(c1ccccc1)c1ccccc1` [diphenhydramine hydrochloride], the steady-state release rate came out at 3.92 mg/h in series [4] (3.75:96.25 diphenhydramine hydrochloride:lactose core powder mixture (400 mg)); 7.58 mg/h in series [4] (6.25:93.75 diphenhydramine hydrochloride:lactose core powder mixture (400 mg)); 12.70 mg/h in series [4] (12.5:87.5 diphenhydramine hydrochloride:lactose core powder mixture (400 mg)); 34.17 mg/h in series [4] (25:75 diphenhydramine hydrochloride:lactose core powder mixture (400 mg)); 67.96 mg/h in series [4] (50:50 diphenhydramine hydrochloride:lactose core powder mixture (400 mg)).

For the origin of these results see US9050264B2, “Cellulose capsules and methods for making them” (University of Iowa Research Foundation, priority 2009, dated 2015).
